For 37 compounds, Papp results are on record in PubChem BioAssay AID1508612.

The nature of this data set: passive permeability, PAMPA, ADME assay (AID 1508612). The settings on record: pH 7.4, 30.0 min, 50.0 µM.
Usually Papp stands for a coefficient for how fast a substance crosses the barrier. `COc1cccc(CNc2ccc(C(=O)Nc3nccs3)cc2)c1O` gave an apparent permeability coefficient (Papp) greater than 1000 ×10⁻⁶ cm/s.
To `OCc1cccc(-c2cc(-c3cccnc3)c3cncn3c2)c1` belongs 76 ×10⁻⁶ cm/s.
To `CNc1ccc(Br)cc(C(=O)/C=C/c2ccc(OC)cc2OC)c1=O` belongs 143 ×10⁻⁶ cm/s; to `Cc1nc(Nc2n[nH]c3c2CN(C(=O)N[C@H](CN(C)C)c2ccccc2)C3(C)C)c2sccc2n1`, 2.31 ×10⁻⁶ cm/s.
Consider `CC1=C[C@@H](CN2C(=O)C(C)=C(C)C2=O)[C@H](C(C)C)C[C@H]1Cc1nc2c(C)cccc2[nH]1`, for which the Papp is 585 ×10⁻⁶ cm/s.
In the case of `Cc1cccc(-n2cnc3cc(C(=O)N4CCCCCC4)ccc32)c1`, the Papp was greater than 1000 ×10⁻⁶ cm/s.
Regarding `COc1ccc(NC(=O)c2[nH]c(C)c(C(C)=O)c2C)cc1S(=O)(=O)Nc1ccc(C#N)cc1`, the Papp was determined as 35.7 ×10⁻⁶ cm/s.
To `COc1cc(Nc2nc(-c3ccncc3)nc3ccccc23)ccc1F` belongs 445 ×10⁻⁶ cm/s; to `O=c1[nH]cnc2nc[nH]c12`, less than 1 ×10⁻⁶ cm/s; to `COc1ccc(CN2CCc3c(c(=O)n4ncc(C(=O)N5CCN(c6ccccc6OC)CC5)c4n3C)C2)cc1`, 445 ×10⁻⁶ cm/s.
Turning to `CC1=C(C(=O)Nc2ccccc2C)C(c2ccccc2Br)N=C(Nc2nc3ccccc3o2)N1` (configuration not stated), the Papp is 390 ×10⁻⁶ cm/s.
To `O=C(Nc1ccc(Cl)cc1)Nc1ccc(Cl)c(Cl)c1` belongs 240 ×10⁻⁶ cm/s; to `CCCc1ccc(-c2csc(NC(=O)c3ccncc3NS(=O)(=O)c3ccc(C)cc3)n2)cc1`, 755 ×10⁻⁶ cm/s; to `CNC(=O)C1CCN(C(=O)c2ccc(-c3ncc4cnc(-c5ccccc5)cn34)cc2)CC1`, 15.4 ×10⁻⁶ cm/s.
The compound `Nc1ncnc2c1c(-c1cnc3[nH]ccc3c1)nn2C1CCCC1` displayed a Papp greater than 1000 ×10⁻⁶ cm/s.
As to `c1ccc2c(Nc3ccn[nH]3)nc(-c3ccncc3)nc2c1`, the Papp was 880 ×10⁻⁶ cm/s.
Regarding `Nc1cc(-c2nc(Nc3ccc(F)c(F)c3)c3ccccc3n2)ccn1`, the apparent permeability (Papp) was greater than 1000 ×10⁻⁶ cm/s.
To `COc1cc(C(=S)N2CCN(CCO)CC2)ccc1OCc1ccc(C)cc1` belongs greater than 1000 ×10⁻⁶ cm/s; to `CC(=O)Nc1nc(C)c(-c2ccc(Cl)c(S(=O)(=O)NCCO)c2)s1`, 12.1 ×10⁻⁶ cm/s; to `CN1CCC(N(Cc2cccs2)c2ccccc2)CC1`, greater than 1000 ×10⁻⁶ cm/s.
`Brc1ccc(-c2csc(N3CCCCC3)n2)cc1` had a Papp of 111 ×10⁻⁶ cm/s.
As to `COc1nccc(-c2nc(Nc3ccc(F)c(F)c3)c3ccccc3n2)c1Cl`, the Papp came out at 30.3 ×10⁻⁶ cm/s. Against the preceding compound, the Papp is about 3.7-fold lower.
To `CNc1sc(-c2cccc3ccccc23)nc1C#N` belongs 716 ×10⁻⁶ cm/s; to `COCCn1ccc2c(C3=CCOCC3)nc(-c3ccc4c(c3)CNC4=O)cc21`, 71.7 ×10⁻⁶ cm/s; to `c1cc(-c2cc(-c3ccncc3)c3cncn3c2)c2[nH]ccc2c1`, 157 ×10⁻⁶ cm/s.
Consider `O=C([C@H](Cc1ccc(O[S+](=O)([O-])c2cccc3cnccc23)cc1)N[S+](=O)([O-])c1cccc2cnccc12)N1CCN(Cc2ccccc2)CC1`, for which the apparent permeability (Papp) is 399 ×10⁻⁶ cm/s. This Papp lies about 2.5-fold higher than the previous one.
`CCOC(=O)N1CCN(Cc2nc3c(c(=O)n(C)c(=O)n3C)n2CCC(C)C)CC1` came in with a Papp of 765 ×10⁻⁶ cm/s. This Papp lies about 1.9-fold higher than the previous one.
`Clc1ccccc1-c1nc(NCc2ccc(-c3cccnc3)cc2)c2ccccc2n1` registered a Papp of 944 ×10⁻⁶ cm/s.
Compound `Cc1ccccc1C(=O)N1CCc2cc(-c3nc(NC(=O)c4ccc5c(c4)OCO5)sc3C)ccc21` came in with a Papp of 569 ×10⁻⁶ cm/s. This Papp is about 1.7-fold lower than that of the compound before.
To `CCN(CC)CCNC(=O)c1c(C)[nH]c(/C=C2\C(=O)Nc3ccc(F)cc32)c1C` belongs 235 ×10⁻⁶ cm/s; to `Clc1ccc(Nc2nc(-c3ccncc3)nc3ccccc23)cc1Cl`, 76.1 ×10⁻⁶ cm/s.
To `O=C(O)c1cccc(-c2noc(-c3ccccc3F)n2)c1` belongs 111 ×10⁻⁶ cm/s.
To `O=C(Nc1ccc(N2CCC(N3CCCCC3)CC2)c(C(=O)O)c1)c1ccc(Br)cc1` belongs less than 1 ×10⁻⁶ cm/s; to `O=C(Nc1ccc2c(N3CCCCC3)ncnc2c1)c1cc(F)cc(F)c1`, greater than 1000 ×10⁻⁶ cm/s.
Take `Cc1ccc(Cl)cc1NS(=O)(=O)c1cc2c(cc1F)NC(=O)CC2`: the Papp is 581 ×10⁻⁶ cm/s.
`Clc1ccc(-c2noc3ncnc(N4CCCCC4)c23)cc1` displayed a Papp greater than 1000 ×10⁻⁶ cm/s.
Take `COc1ccccc1NC(=O)C1=C(C)Nc2c(C(=O)Nc3cccc(C)c3)cnn2C1c1ccccc1Cl` (configuration not stated): the Papp stood at 751 ×10⁻⁶ cm/s.
